Experimental data taken from patent US10976306B2, “Protein degradation inducing tag and usage thereof” (Tokyo University of Science Foundation, priority 2015, dated 2021).
Non-standard residues stand in square brackets, D forms with d. Residues, ends and D or L forms follow the SMILES beside them. Nle = CCCC[C@H](N)C(=O)O

What was measured:
[1] = target: T1, β1 (caspase-like activity) of 20S proteasome (Homo sapiens, UniProt P28072); assay: 20S proteasome inhibitory activity, AMC fluorescent substrate Z-LLE-AMC; type: biochemical
T1 construct: purchased Bioscience (20S Proteasome StressXpress Assay Kit Gold)

[2] = target: β2 (trypsin-like activity) of 20S proteasome (Homo sapiens, UniProt Q99436); assay: 20S proteasome inhibitory activity, AMC fluorescent substrate Bz-VGR-AMC
[3] = target: β5 (chymotrypsin-like activity) of 20S proteasome (Homo sapiens, UniProt P28074); assay: 20S proteasome inhibitory activity, AMC fluorescent substrate Suc-LLVY-AMC
E. coli DHFR = target: T2, E. coli DHFR (Escherichia coli, UniProt P0ABQ4); assay: Thermal shift assay of affinity with forcedly expressed target protein in HeLa cells; type: binding; settings: bortezomib alone
T2 construct: expressed in transfected cells; host or cells: HeLa cells, transient transfection with pMIR DsRed-IRES-ecDHFR-HA-GFP

| SMILES | IC50 ([1]; 20S proteasome 0.1 μg, 30 min preincubation, substrate 100 μM, 1 hour) [µM] | inhibitory activity against β1 ([1]; FIGS. 4A, 7A, compared with the original proteasome inhibitor alone) | IC50 [2] [µM] | IC50 [3] [µM] | interaction with E. coli DHFR (E. coli DHFR) |
| --- | --- | --- | --- | --- | --- |
| CCCC[C@@H](C=O)NC(=O)[C@H](CC(C)C)NC(=O)[C@H](CC(C)C)NC(C)=O [ALLN] (Ac-Leu-Leu-[Nle]-aldehyde) | 12.4 | not significantly inhibited | 5.25 | 1.15 | – |
| CC(C)C[C@H](NC(=O)[C@H](Cc1ccccc1)NC(=O)c1cnccn1)B(O)O [Bortezomib] | – | – | – | – | did not interact with E. coli DHFR |
| CC(C)C[C@H](NC(=O)CNC(=O)c1cc(Cl)ccc1Cl)B(O)O [MLN2238] | – | – | 6.4 | – | – |
